Compound: O=C([O-])O.[Na+] [bicarbonate (as NaHCO3), sodium bicarbonate]
- amount of exhaled carbon dioxide on extravascular administration (administered extravascularly): does not substantially increase
- clearance: amount of exhaled carbon dioxide returns to normal after administration is stopped (after intravenous administration is stopped): within the third exhalation
